The values below are quoted from earlier work in patent publication US7563896B2, “Process of obtaining type II dehydroquinase enzyme inhibitors and precursors thereof” (Universidade de Santiago de Compostela, priority 2003, dated 2009).

Each structure is given as a SMILES string.

One series has as its target EPSP synthase. Conditions: sixth enzyme of the shikimic acid pathway, read-out: inhibition constant.

As to `O=C(O)CNCP(=O)(O)O` [Glyphosphate], the Ki on EPSP synthase is about 1000 nM. Besides, in the series with malaria, the effectiveness against malaria entry is on record as “effective”.
